Laboratory results reported in patent US20190374526A1, “Substituted Heterocyclic Compounds as Inhibitors of PRDM9” (Merck Sharp & Dohme Corp., priority 2018, published 2019).

Molecular target: T1, hPRDM9 (amino acids 195-385) (Homo sapiens, UniProt Q9NQV7)
T1 construct: 1.25 nM hPRDM9 (amino acids 195-385)
T1 sequence (Q9NQV7 195-385): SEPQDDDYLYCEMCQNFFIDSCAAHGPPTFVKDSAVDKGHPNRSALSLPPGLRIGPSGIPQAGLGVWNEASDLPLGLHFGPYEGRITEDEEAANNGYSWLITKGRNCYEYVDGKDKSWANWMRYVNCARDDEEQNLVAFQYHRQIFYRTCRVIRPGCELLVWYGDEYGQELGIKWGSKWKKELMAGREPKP
Test: PRDM9 biochemical assay (radiometric, 3[H] methyl transfer from SAM to biotinylated histone H3 peptide)
Settings: 1 nM hPRDM9, 1 μM biotinylated H3(1-25)K4 peptide, 5 μM 3[H]-SAM, 55 μM un-labeled SAM, 25° C., 30 minutes
Procedure: The PRDM9 biochemical assay was carried out using a radiometric format involving the transfer of ^3[H] methyl group from S-adenosyl methionine (SAM) to a biotinylated histone H3 peptide (H3(1-25)K4). 10 mM compounds in DMSO were diluted 20 fold in assay buffer (10 mM Tris-HCl, pH 8.5, 10 mM DTT, and 0.01% Triton X-100) before adding […] to a well in a 384 well polypropylene microplate plate and adding 8 μl of reaction mix (1.25 nM hPRDM9 (amino acids 195-385), 1.25 μM biotinylated H3 peptide in assay buffer). The ^3[H]-SAM and cold SAM stock solutions were diluted to 50 μM and 550 μM respectively in assay buffer before aliquoting 1 μl of 50 μM ^3[H]-SAM, 550 μM SAM into each well to initiate the reaction. The assay was performed at 25° C. at the final concentrations of 1 nM hPRDM9, 1 μM peptide, 5 μM ^3[H]-SAM, and 55 μM un-labeled SAM in assay buffer. The reaction was quenched after 30 minutes by adding 25 μl 7.5 M Guanidine-HCl. Quenched reactions were transferred to streptavidin coated Flashplates, diluted two fold in assay buffer, incubated for 1 hour, and read on a Perkin Elmer Topcount instrument. Compound activity was expressed relative to activity of 0.5% (v/v) DMSO treated samples and fit to a four parameter logistic equation to determine IC50 values.

SMILES	IC50 [µM]
Cc1cc(N2CCC3C(Nc4nc(-c5cc(Cl)cc(Cl)c5)no4)CCC32)ccn1 (mixture of isomers) [Compound 27]	36.4
Cc1cc(N[C@@H]2[C@@H](O)CN(c3nc(-c4cc(Cl)cc(Cl)c4)no3)[C@H]2C)ccn1 (racemic) [Compound 29]	13.3
Cc1cc(N2C[C@H]3CCN(c4nc(-c5cc(Cl)cc(Cl)c5)no4)C[C@H]3C2)ccn1 (racemic) [Compound 36]	27.8
Cc1cc(N[C@H]2CC[C@H](Nc3nc(-c4cc(Cl)cc(Cl)c4)no3)C2)ccn1 (racemic) [Compound 50]	16.4
Cc1cc(N2CC[C@@H]3CN(c4nc(-c5cc(Cl)cc(Cl)c5)no4)C[C@@H]3C2)ccn1 [Compound 1, 3-(3,5-dichlorophenyl)-5-((3aS,7aS)-5-(2-methylpyridin-4-yl)hexahydro-1H-pyrrolo[3,4-c]pyridin-2(3H)-yl)-1,2,4-oxadiazole]	5.16
Cc1cc(N2CCC3(CCN(c4nc(-c5cc(Cl)cc(Cl)c5)no4)C3)C2)ccn1 (centres unmarked) [Compound 4]	0.36
Cc1cc(N2CCC(C3CCCN(c4nc(-c5cc(Cl)cc(Cl)c5)no4)C3)CC2)ccn1 (centres unmarked) [Compound 6]	11.3
Cc1cc(NC2CCCC(Nc3nc(-c4cc(Cl)cc(Cl)c4)no3)CC2)ccn1 (centres unmarked) [Compound 7]	4.85
Cc1cc(N2CCC(F)(CNc3nc(-c4cc(Cl)cc(Cl)c4)no3)CC2)ccn1 [Compound 8]	0.804
Cc1cc(NC(C)C2CCCN(c3nc(-c4cc(Cl)cc(Cl)c4)no3)C2)ccn1 (centres unmarked) [Compound 11]	19.7
Cc1cc(NC[C@H]2CCCN2c2nc(-c3cc(Cl)cc(Cl)c3)no2)ccn1 [Compound 12]	41.5
Cc1cc(N2CCC3(CC2)CCN(c2nc(-c4cc(Cl)cc(Cl)c4)no2)CC3)ccn1 [Compound 15]	31.6
Cc1cc(NCCCN(C)c2nc(-c3cc(Cl)cc(Cl)c3)no2)ccn1 [Compound 16]	11.5
Cc1cc(N2CCC3(CCN(c4nc(-c5cc(Cl)cc(Cl)c5)no4)CC3)C2)ccn1 [Compound 20]	7.79
Cc1cc(N2CCC(CCNc3nc(-c4cc(Cl)cc(Cl)c4)no3)CC2)ccn1 [Compound 22]	18.6
CCC1(CNc2ccnc(C)c2)CCN(c2nc(-c3cc(Cl)cc(Cl)c3)no2)C1 (centres unmarked) [Compound 23]	17.8
Cc1cc(N2CC3CC(Nc4nc(-c5cc(Cl)cc(Cl)c5)no4)CC3C2)ccn1 (centres unmarked) [Compound 24]	5.34
Cc1cc(N2CCC3(CCC(=O)N(c4nc(-c5cc(Cl)cc(Cl)c5)no4)C3)CC2)ccn1 [Compound 28]	0.0225
Cc1cc(NC2CCCC(Nc3nc(-c4cc(Cl)cc(Cl)c4)no3)C2)ccn1 (centres unmarked) [Compound 30]	28.2

SMILES	IC50 [µM]
CCC1(CNc2nc(-c3cc(Cl)cc(Cl)c3)no2)CCN(c2ccnc(C)c2)CC1 [Compound 32]	2.21
Cc1cc(N2CCC3(CCCC3Nc3nc(-c4cc(Cl)cc(Cl)c4)no3)CC2)ccn1 (centres unmarked) [Compound 33]	1.52
Cc1cc(N2CCC3(CC2)CC3Nc2nc(-c3cc(Cl)cc(Cl)c3)no2)ccn1 (centres unmarked) [Compound 34]	2.2
Cc1cc(NCC2(O)CCN(c3nc(-c4cc(Cl)cc(Cl)c4)no3)C2)ccn1 (centres unmarked) [Compound 37]	15.5
Cc1cc(N2CCC(CN(C)c3nc(-c4cc(Cl)cc(Cl)c4)no3)CC2)ccn1 [Compound 38]	0.16
Cc1cc(N2CCC3CN(c4nc(-c5cc(Cl)cc(Cl)c5)no4)CC32)ccn1 (centres unmarked) [Compound 39]	12.3
Cc1cc(N2CCC3(CC2)CN(c2nc(-c4cc(Cl)cc(Cl)c4)no2)CCO3)ccn1 [Compound 40]	0.0803
Cc1cc(N2CCC3(CCCN3c3nc(-c4cc(Cl)cc(Cl)c4)no3)C2)ccn1 (centres unmarked) [Compound 41]	3.92
Cc1cc(N2CCCC(Nc3nc(-c4cc(Cl)cc(Cl)c4)no3)CC2)ccn1 (centres unmarked) [Compound 42]	35.8
Cc1cc(NCC(F)CNc2nc(-c3cc(Cl)cc(Cl)c3)no2)ccn1 (centres unmarked) [Compound 43]	13.3
Cc1cc(N2CC(C3CCCCN3c3nc(-c4cc(Cl)cc(Cl)c4)no3)C2)ccn1 (centres unmarked) [Compound 44]	0.5
Cc1cc(N2CC3CN(c4nc(-c5cc(Cl)cc(Cl)c5)no4)CC3C2)ccn1 (centres unmarked) [Compound 45]	0.34
Cc1cc(NCC2CN(c3nc(-c4cc(Cl)cc(Cl)c4)no3)C2)ccn1 [Compound 49]	40.2
Cc1cc(N2CCC(N(c3nc(-c4cc(Cl)cc(Cl)c4)no3)C3CC3)CC2)ccn1 [Compound 51]	7.29
Cc1cc(N2CC(CCNc3nc(-c4cc(Cl)cc(Cl)c4)no3)C2)ccn1 [Compound 52]	29.4
Cc1cc(NC2CCC(Nc3nc(-c4cc(Cl)cc(Cl)c4)no3)CC2)ccn1 (centres unmarked) [Compound 54]	26.1
Cc1cc(N2CCC(O)(CNc3nc(-c4cc(Cl)cc(Cl)c4)no3)C2)ccn1 (centres unmarked) [Compound 56]	28
Cc1cc(N(C)CCCCNc2nc(-c3cc(Cl)cc(Cl)c3)no2)ccn1 [Compound 58]	24
Cc1cc(NCC2(C)CCN(c3nc(-c4cc(Cl)cc(Cl)c4)no3)CC2)ccn1 [Compound 64]	3.58

SMILES	IC50 [µM]
Cc1cc(N2CCC(C3CCN(c4nc(-c5cc(Cl)cc(Cl)c5)no4)CC3)CC2)ccn1 [Compound 65]	6.2
Cc1cc(NC2CCC3CN(c4nc(-c5cc(Cl)cc(Cl)c5)no4)CC3C2)ccn1 (centres unmarked) [Compound 66]	0.47
Cc1cc(N2CCC(CNc3nc(-c4cc(Cl)cc(Cl)c4)no3)(c3ccccc3)CC2)ccn1 [Compound 67]	4.44
Cc1cc(N2CC3CCCN(c4nc(-c5cc(Cl)cc(Cl)c5)no4)C3C2)ccn1 (centres unmarked) [Compound 68]	2.8
Cc1cc(NC2CCC(O)(CNc3nc(-c4cc(Cl)cc(Cl)c4)no3)CC2)ccn1 (centres unmarked) [Compound 69]	7.04
Cc1cc(N2CC3CCC(Nc4nc(-c5cc(Cl)cc(Cl)c5)no4)CC3C2)ccn1 (centres unmarked) [Compound 70]	6.9
Cc1cc(N2CCC3CN(c4nc(-c5cc(Cl)cc(Cl)c5)no4)CCC32)ccn1 (centres unmarked) [Compound 71]	27.7
Cc1cc(NC2CCCN(c3nc(-c4cc(Cl)cc(Cl)c4)no3)CC2)ccn1 (centres unmarked) [Compound 74]	1.13
Cc1cc(N2CCC(C3CCN(c4nc(-c5cc(Cl)cc(Cl)c5)no4)C3)CC2)ccn1 (centres unmarked) [Compound 77]	2.63
Cc1cc(N2CCN(c3nc(-c4cc(Cl)cc(Cl)c4)no3)CC2)ccn1 [Compound 79]	19.1
Cc1cc(N2CCC3(CC2)CC3Nc2nc(-c3cc(Cl)cc(Cl)c3)no2)ccn1 (centres unmarked) [Compound 80]	2.83
Cc1cc(NC[C@H]2CCN(c3nc(-c4cc(Cl)cc(Cl)c4)no3)C2)ccn1 [Compound 81]	13.3
COc1cc(OC)cc(-c2nc(N3CCCC4(CCN(c5ccnc(C)c5)CC4)C3)no2)c1 [Compound 85, 5-(3,5-dimethoxyphenyl)-3-(9-(2-methylpyridin-4-yl)-2,9-diazaspiro[5.5]undecan-2-yl)-1,2,4-oxadiazole]	0.08
COc1cc(Cl)cc(-c2nc(N3CCCC4(CCN(c5ccnc(C)c5)CC4)C3)no2)c1 [Compound 86]	0.28
COc1cccc(-c2nc(N3CCCC4(CCN(c5ccnc(C)c5)CC4)C3)no2)c1 [Compound 87]	0.47
Cc1cc(N2CCC3(CCCN(c4noc(-c5cccc(Cl)c5)n4)C3)CC2)ccn1 [Compound 88]	0.06
CCN1CCN(c2noc(-c3cc(OC)cc(OC)c3)n2)CC12CCN(c1ccnc(C)c1)CC2 [Compound 89]	0.08
COc1cc(OC)cc(-c2nc(N3CCN(C)C4(CCN(c5ccnc(C)c5)CC4)C3)no2)c1 [Compound 90]	0.118
